Reference: ChEMBL document CHEMBL1153681 (Bioorg Med Chem Lett, 1992)

Legend:
Mu-type opioid receptor = Mu-type opioid receptor (Rattus norvegicus, UniProt P33535)
Description: Evaluated for its affinity towards Opioid receptor mu 1 in rat forebrain by displacing the radioligand [3H]sufentanil.

Cavia porcellus = organism: Cavia porcellus; assay: Evaluated for its ability to inhibit electrically induced contractions in the guinea pig ileum (GPI); assay type: functional, organism-based
[1] = Ratio of the ability to inhibit electrically induced contractions in the mouse vas deferens (MVD) to that of the guinea pig ileum (GPI); assay type: functional
Mus musculus = organism: Mus musculus; assay: Evaluated for its ability to inhibit electrically induced contractions in the mouse vas deferens (MVD); assay type: functional, organism-based
[2] = molecular target: Delta-type opioid receptor (Rattus norvegicus, UniProt P33533); assay: Evaluated for its affinity towards Opioid receptor delta 1 in rat fore brain by displacing the radioligand [3H]DPDPE.
Chain of Delta-type opioid receptor (P33533 whole entry): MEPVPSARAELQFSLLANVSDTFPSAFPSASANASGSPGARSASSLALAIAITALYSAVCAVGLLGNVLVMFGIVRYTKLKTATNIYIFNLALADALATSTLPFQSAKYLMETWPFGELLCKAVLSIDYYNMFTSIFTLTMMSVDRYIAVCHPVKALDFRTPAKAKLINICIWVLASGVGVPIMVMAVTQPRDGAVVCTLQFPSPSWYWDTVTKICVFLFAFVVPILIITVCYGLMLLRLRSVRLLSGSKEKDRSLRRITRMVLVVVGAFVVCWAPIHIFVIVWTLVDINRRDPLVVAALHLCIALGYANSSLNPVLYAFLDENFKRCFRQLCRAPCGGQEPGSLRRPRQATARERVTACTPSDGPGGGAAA

Chain of Mu-type opioid receptor (P33535 whole entry): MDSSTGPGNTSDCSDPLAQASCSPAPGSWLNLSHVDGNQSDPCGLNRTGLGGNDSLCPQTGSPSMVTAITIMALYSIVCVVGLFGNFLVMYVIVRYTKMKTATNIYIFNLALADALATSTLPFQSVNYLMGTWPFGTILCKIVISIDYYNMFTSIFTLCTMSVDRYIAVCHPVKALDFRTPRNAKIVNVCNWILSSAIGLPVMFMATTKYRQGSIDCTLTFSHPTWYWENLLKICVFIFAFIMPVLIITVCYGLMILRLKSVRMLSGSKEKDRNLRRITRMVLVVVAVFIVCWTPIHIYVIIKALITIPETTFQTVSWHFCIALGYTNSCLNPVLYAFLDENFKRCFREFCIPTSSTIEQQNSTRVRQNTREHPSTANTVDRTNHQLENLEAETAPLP

Row | Structure (SMILES) | IC50 (Mu-type opioid receptor) | IC50 (Cavia porcellus) | Ratio [1] | IC50 (Mus musculus) | IC50 [2]
1 | C[C@@H](NC(=O)[C@@H](N)Cc1ccc(O)cc1)C(=O)N[C@@H](Cc1ccccc1)C(=O)NCC(=O)N[C@@H](Cc1ccc(O)cc1)C(=O)N1CCC[C@H]1C(=O)N[C@@H](CO)C(N)=O [DERMORPHIN] | 2.4 nM | 1.06 nM |  |  | 
2 | CC(C)[C@H](NC(=O)[C@H](CC(=O)O)NC(=O)[C@H](Cc1ccccc1)NC(=O)[C@@H](C)NC(=O)[C@@H](N)Cc1ccc(O)cc1)C(=O)N[C@H](C(=O)NCC(N)=O)C(C)C [DELTORPHIN C] |  | ≥ 3000 nM | <=0.0001 | 0.32 nM | 
3 | C[C@H](NC(=O)[C@@H](N)Cc1ccc(O)cc1)C(=O)N[C@H]1Cc2ccccc2CN(CC(=O)N[C@@H](Cc2ccc(O)cc2)C(=O)N2CCC[C@H]2C(=O)N[C@@H](CO)C(N)=O)C1=O | 11 nM | 10.8 nM | 0.06 | 0.66 nM | 17.4 nM
